Data: patent publication US20100267697A1, “ION CHANNEL MODULATORS” (Wyeth, priority 2006, published 2010)
Like-named read-outs stand apart in the source and are kept apart here.

Molecular target: T1, Cav2.2 (Homo sapiens, UniProt Q00975)
T1 construct: expressed in transfected cells; host or cells: HEK-293T/17 (transient, FuGENE 6)
Assay: HEK assay (whole-cell patch clamp, transiently transfected HEK-293T/17 cells, pulses P1 and P5)
Assay type: cell-based
Details: holding potential −100 mV
Experimental: HEK-293T/17 cells were transiently transfected in a similar manner as described in FuGENE 6 Package Insert Version 7, April 2002, Roche Applied Science, Indianapolis, Ind. The cells were plated at 2.5×10^5 cells in 2 mL in a 6-well plate, incubated for one night, and achieved a ˜30-40% confluence. In a small sterile tube, sufficient serum-free medium was added as diluent for FuGENE Transfection Reagent (Roche Applied Science, Indianapolis, Ind.) to a total volume of 100 μL. To this medium was added 3 μL of FuGENE 6 Reagent. The mixture was tapped gently to mix. To the prediluted FuGENE 6 Reagent was added 2 μg of DNA solution (0.8-2.0 μg/μL). The DNA/Fugene 6 mixture was gently pipeted to mix the contents and incubated for about 15 minutes at room temperature. The complex mixture was then added to the HEK-293T/17 cells, distributed around the well, and swirled to ensure even dispersal. The cells were returned to the incubator for 24 hours. The transfected cells were then replated at density 2.5×10^5 in a 35 mm dish with 5 glass coverslips and grew in low serum (1%) media for 24 hours. Coverslips with isolated cells were then transferred into a chamber, and calcium channel (e.g., L-type, N-type, etc.) current or other currents for counter screening were recorded from the transiently transfected HEK-293T/17 cells.
The whole-cell voltage clamp configuration of the patch clamp technique was employed to evaluate voltage-dependent calcium currents essentially as described by Thompson and Wong (1991), J. Physiol., 439: 671-689, the entire disclosure of which is herein incorporated by reference. To record calcium channel (e.g., L-type, N-type, etc.) currents for evaluation of inhibitory potency of compounds (steady-state concentration-response analysis), five pulses of 20-30 ms voltage steps to about +10 mV (the peak of the current voltage relationship) were delivered at five Hz every 30 second from a holding potential at −100 mV. In order to obtain an estimate of the degree of use-dependent block of the test compounds, IC50 values were determined at the first and fifth pulse of the train (P1 and P5, respectively, in Table 2). Compound evaluations were carried out essentially as described by Sah D. W. and Bean B. P. (1994), Mol. Pharmacol., 45:84-92, the entire disclosure of which is herein incorporated by reference.

[1] = fifth pulse (P5) of 5 Hz train, read-out: HEK Cav2.2 P5 IC50
[2] = first pulse (P1) of 5 Hz train, read-out: HEK Cav2.2 P1 IC50

T1 sequence (Q00975 whole entry): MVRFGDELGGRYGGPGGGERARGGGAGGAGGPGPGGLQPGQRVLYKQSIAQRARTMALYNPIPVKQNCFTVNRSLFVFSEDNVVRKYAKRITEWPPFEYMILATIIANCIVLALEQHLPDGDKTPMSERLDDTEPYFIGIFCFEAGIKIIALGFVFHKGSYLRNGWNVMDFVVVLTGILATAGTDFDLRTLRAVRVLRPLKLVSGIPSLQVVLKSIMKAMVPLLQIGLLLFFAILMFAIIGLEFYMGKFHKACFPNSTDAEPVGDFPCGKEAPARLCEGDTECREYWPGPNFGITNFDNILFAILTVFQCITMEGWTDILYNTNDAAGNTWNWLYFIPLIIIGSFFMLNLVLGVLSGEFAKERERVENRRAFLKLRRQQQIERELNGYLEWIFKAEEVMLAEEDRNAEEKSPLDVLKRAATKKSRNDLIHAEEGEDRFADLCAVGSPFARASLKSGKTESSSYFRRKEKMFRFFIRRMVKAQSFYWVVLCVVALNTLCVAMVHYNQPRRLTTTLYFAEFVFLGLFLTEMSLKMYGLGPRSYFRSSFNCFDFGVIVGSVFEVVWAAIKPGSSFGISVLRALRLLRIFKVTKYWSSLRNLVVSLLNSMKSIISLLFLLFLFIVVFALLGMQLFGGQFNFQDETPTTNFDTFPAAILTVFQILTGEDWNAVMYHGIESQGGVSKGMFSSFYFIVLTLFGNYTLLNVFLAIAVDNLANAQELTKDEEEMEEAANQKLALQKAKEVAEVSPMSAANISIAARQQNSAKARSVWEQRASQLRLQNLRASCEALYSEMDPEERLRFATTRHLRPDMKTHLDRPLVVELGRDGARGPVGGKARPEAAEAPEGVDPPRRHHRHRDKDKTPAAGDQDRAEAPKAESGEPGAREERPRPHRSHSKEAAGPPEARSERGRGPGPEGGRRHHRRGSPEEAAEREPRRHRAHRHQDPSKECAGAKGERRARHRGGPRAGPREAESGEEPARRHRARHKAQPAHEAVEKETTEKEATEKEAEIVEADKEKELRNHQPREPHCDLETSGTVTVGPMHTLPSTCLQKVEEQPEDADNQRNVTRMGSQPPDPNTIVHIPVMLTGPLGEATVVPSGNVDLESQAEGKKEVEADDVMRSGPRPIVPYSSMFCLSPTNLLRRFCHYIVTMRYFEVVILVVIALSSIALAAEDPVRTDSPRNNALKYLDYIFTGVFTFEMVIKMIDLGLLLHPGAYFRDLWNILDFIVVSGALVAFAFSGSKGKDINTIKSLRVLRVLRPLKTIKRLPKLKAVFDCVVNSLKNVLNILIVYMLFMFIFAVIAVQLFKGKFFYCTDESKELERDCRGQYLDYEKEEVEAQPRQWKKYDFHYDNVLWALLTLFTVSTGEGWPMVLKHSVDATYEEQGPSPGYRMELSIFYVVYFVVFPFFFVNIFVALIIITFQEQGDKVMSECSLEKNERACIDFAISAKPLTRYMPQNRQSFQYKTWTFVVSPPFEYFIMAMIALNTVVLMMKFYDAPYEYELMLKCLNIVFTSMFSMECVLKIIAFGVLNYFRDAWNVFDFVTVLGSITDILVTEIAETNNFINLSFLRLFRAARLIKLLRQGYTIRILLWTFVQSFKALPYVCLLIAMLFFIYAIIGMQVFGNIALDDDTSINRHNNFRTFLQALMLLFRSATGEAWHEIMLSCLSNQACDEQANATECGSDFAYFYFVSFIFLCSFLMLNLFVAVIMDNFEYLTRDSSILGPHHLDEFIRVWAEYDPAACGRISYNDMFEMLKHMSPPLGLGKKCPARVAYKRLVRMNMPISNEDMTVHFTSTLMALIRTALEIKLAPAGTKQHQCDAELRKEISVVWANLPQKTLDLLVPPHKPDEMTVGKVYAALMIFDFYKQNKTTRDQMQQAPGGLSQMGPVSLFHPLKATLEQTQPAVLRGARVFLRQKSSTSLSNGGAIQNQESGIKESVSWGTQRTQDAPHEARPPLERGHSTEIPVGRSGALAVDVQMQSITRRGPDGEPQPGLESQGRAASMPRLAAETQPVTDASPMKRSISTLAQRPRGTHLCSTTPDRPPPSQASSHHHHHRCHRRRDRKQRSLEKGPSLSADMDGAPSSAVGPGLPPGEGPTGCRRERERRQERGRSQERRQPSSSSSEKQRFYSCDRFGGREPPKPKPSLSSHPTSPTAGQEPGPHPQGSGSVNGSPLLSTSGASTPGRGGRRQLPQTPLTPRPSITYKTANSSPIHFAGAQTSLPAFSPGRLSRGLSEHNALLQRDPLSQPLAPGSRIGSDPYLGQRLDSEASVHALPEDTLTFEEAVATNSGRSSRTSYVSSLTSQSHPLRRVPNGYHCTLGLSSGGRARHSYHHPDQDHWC
T1 sequence (P54284 whole entry partner): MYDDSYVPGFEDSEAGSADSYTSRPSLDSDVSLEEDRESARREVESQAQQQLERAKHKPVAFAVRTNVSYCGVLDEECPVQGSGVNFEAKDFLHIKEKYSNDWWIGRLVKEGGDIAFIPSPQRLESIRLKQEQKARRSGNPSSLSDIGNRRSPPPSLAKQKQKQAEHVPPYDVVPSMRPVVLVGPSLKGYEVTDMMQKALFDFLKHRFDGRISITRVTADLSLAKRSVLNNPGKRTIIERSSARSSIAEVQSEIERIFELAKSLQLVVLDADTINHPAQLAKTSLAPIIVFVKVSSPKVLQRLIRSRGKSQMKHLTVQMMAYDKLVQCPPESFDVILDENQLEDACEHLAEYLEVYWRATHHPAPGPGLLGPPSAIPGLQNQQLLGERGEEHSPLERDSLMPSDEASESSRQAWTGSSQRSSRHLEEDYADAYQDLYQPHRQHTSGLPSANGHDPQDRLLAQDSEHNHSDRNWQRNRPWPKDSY
T1 sequence (P54289 25-946 partner limits assumed): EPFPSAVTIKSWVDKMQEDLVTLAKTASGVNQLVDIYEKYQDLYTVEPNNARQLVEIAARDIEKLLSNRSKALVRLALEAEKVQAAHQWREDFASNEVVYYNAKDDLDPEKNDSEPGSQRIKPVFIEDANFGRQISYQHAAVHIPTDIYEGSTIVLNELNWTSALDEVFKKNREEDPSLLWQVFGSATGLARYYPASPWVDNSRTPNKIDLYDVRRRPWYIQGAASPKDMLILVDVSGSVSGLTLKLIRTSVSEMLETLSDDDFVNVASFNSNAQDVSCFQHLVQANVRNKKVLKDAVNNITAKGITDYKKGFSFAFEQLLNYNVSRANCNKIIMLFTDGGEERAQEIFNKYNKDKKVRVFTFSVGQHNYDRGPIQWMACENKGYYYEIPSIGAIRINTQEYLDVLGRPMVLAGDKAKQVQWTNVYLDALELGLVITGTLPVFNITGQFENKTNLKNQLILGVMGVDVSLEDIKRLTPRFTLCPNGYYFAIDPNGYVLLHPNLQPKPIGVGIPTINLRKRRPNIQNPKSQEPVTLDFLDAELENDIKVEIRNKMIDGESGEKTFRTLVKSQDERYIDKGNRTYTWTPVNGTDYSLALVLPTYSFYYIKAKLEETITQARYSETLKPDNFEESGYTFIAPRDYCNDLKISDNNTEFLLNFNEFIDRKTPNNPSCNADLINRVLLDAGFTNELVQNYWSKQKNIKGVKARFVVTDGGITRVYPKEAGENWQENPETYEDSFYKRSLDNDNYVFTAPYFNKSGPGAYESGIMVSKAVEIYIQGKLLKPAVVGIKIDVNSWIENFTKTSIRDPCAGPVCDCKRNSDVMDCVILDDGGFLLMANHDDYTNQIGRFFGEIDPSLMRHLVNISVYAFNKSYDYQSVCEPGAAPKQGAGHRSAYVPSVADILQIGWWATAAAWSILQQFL
T1 sequence (P54289 947-1103 partner limits assumed): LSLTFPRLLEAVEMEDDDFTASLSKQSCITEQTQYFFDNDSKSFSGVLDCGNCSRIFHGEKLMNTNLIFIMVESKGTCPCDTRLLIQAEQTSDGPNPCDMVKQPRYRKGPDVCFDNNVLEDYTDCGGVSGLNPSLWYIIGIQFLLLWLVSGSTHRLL

CC(C)(C)C(=O)N(Cc1ccc(N2CC[C@@H](Oc3ccccn3)C2)nc1)c1ccc(F)cc1 [Compound 55, N-(4-Fluorophenyl)-2,2-dimethyl-N-{6-[3-(pyridin-2-yloxy)-pyrroldiin-1-yl]-pyridin-3-ylmethyl}-propionamide]
IC50 [1]: 600 nM
IC50 [2]: 1700 nM

CNC1CCN(c2ccc(CN(C(=O)C(C)(C)C)c3ccc(F)cc3)cn2)C1 (stereo not shown) [Compound 56, N-(4-Fluorophenyl)-2,2-dimethyl-N-[6-(3-methylamino-pyrrolidin-1-yl)-pyridin-3-ylmethyl]-propionamide]
IC50 [1]: 2800 nM
IC50 [2]: 6000 nM

CCN(CCc1cccnc1)c1ccc(CN(C(=O)C(C)(C)C)c2ccc(F)cc2)cn1 [Compound 58, N-{6-[Ethyl-(2-pyridin-3-yl-ethyl)-amino]-pyridin-3-ylmethyl}-N-(4-fluorophenyl)-2,2-dimethyl-propionamide]
IC50 [1]: 900 nM
IC50 [2]: 4900 nM

CC(C)(C)C(=O)N(Cc1ccc(NCCc2cccnc2)nc1)c1ccc(F)cc1 [Compound 59, N-(4-Fluorophenyl)-2,2-dimethyl-N-[6-(2-pyridin-3-yl-ethylamino)-pyridin-3-ylmethyl]-propionamide]
IC50 [1]: 3800 nM
IC50 [2]: 29100 nM

CCN(CC)c1ccc(CN(C(=O)C(C)(C)n2cc(Cc3ccccc3)nn2)c2ccc(F)cc2)cn1 [Compound 63, 2-(4-Benzyl-[1,2,3]triazol-1-yl)-N-(6-diethylamino-pyridin-3-ylmethyl)-N-(4-fluorophenyl)-isobutyramide]
IC50 [1]: 700 nM
IC50 [2]: 2700 nM

CN(c1ccccc1)c1nc(CN(C(=O)C(C)(C)C)c2ccc(F)cc2)cs1 [Compound 65, N-(4-Fluorophenyl)-2,2-dimethyl-N-[2-(methyl-phenyl-amino)-thiazol-4-ylmethyl]-propionamide]
IC50 [1]: 600 nM
IC50 [2]: 1800 nM

CN(Cc1ccco1)c1ccc(CN(C(=O)C(C)(C)C)c2ccc(F)cc2)cn1 [Compound 66, N-(4-Fluorophenyl)-N-[6-(furan-2-ylmethyl-methyl-amino)-pyridin-3-ylmethyl]-2,2-dimethyl-propionamide]
IC50 [1]: 1100 nM
IC50 [2]: 3500 nM

CC(C)(C)Nc1ccc(CN(C(=O)C(C)(C)C)c2ccc(F)cc2)cn1 [Compound 67, N-(6-tert-Butylamino-pyridin-3-ylmethyl)-N-(4-fluorophenyl)-2,2-dimethyl-propionamide]
IC50 [1]: 3700 nM
IC50 [2]: 9300 nM

COc1ccc(OCc2nc(CN(C(=O)C(C)(C)C)c3ccc(F)cc3)cs2)cc1 [Compound 68, N-(4-Fluorophenyl)-N-[2-(4-methoxy-phenoxymethyl)-thiazol-4-ylmethyl]-2,2-dimethyl-propionamide]
IC50 [1]: 1200 nM
IC50 [2]: 3200 nM

CC(C)c1cccc(N(Cc2csc(N3CCCCC3)n2)C(=O)C(C)(C)C)c1 [Compound 71, N-(3-Isopropyl-phenyl)-2,2-dimethyl-N-(2-piperidin-1-yl-thiazol-4-ylmethyl)-propionamide]
IC50 [1]: 500 nM
IC50 [2]: 2400 nM

CCC(C)(C)C(=O)N(Cc1csc(N2CCOCC2)n1)c1ccc(F)cc1 [Compound 73, N-(4-Fluorophenyl)-2,2-dimethyl-N-(2-morpholin-4-yl-thiazol-4-ylmethyl)-butyramide]
IC50 [1]: 8500 nM
IC50 [2]: 33800 nM

CN(c1ccc(CN(C(=O)C(C)(C)C)c2ccc(F)cc2)cn1)C1CC1 [Compound 74, N-[6-(Cyclopropyl-methyl-amino)-pyridin-3-ylmethyl]-N-(4-fluorophenyl)-2,2-dimethyl-propionamide]
IC50 [1]: 2800 nM
IC50 [2]: 12800 nM

CC(C)(C)C(=O)N(Cc1csc(-c2ccncc2)n1)c1ccc(F)cc1 [Compound 75, N-(4-Fluorophenyl)-2,2-dimethyl-N-(2-pyridin-4-yl-thiazol-4-ylmethyl)-propionamide]
IC50 [1]: 11000 nM
IC50 [2]: 47300 nM

CN1CCN(c2ncc(CN(C(=O)C(C)(C)C)c3ccc(F)cc3)s2)CC1 [Compound 76, N-(4-Fluorophenyl)-2,2-dimethyl-N-[2-(4-methyl-piperazin-1-yl)-thiazol-5-ylmethyl]-propionamide]
IC50 [1]: 5200 nM
IC50 [2]: 29000 nM

CC(C)(C)C(=O)N(Cc1csc(N2CCCC2)n1)c1ccc(F)cc1 [Compound 77, N-(4-Fluorophenyl)-2,2-dimethyl-N-(2-pyrrolidin-1-yl-thiazol-4-ylmethyl)-propionamide]
IC50 [1]: 2600 nM
IC50 [2]: 19100 nM

CC(C)(C)C(=O)N(Cc1ccc(NC2CC2)nc1)c1ccc(F)cc1 [Compound 78, N-(6-Cyclopropylamino-pyridin-3-ylmethyl)-N-(4-fluorophenyl)-2,2-dimethyl-propionamide]
IC50 [1]: 7200 nM
IC50 [2]: 14200 nM

CN(c1ccc(F)cc1)c1nc(CN(C(=O)C(C)(C)C)c2ccc(F)cc2)cs1 [Compound 79, N-(4-Fluorophenyl)-N-{2-[(4-fluorophenyl)-methyl-amino]-thiazol-4-ylmethyl}-2,2-dimethyl-propionamide]
IC50 [1]: 100 nM
IC50 [2]: 300 nM

COc1ccc(N(C)c2nc(CN(C(=O)C(C)(C)C)c3ccc(F)cc3)cs2)cc1 [Compound 80, N-(4-Fluorophenyl)-N-{2-[(4-methoxy-phenyl)-methyl-amino]-thiazol-4-ylmethyl}-2,2-dimethyl-propionamide]
IC50 [1]: 600 nM
IC50 [2]: 2400 nM

CN(c1ccc(F)cc1)c1nc(CN(C(=O)C(C)(C)C)c2ccc(F)cn2)cs1 [Compound 82, N-{2-[(4-Fluorophenyl)-methyl-amino]-thiazol-4-ylmethyl}-N-(5-fluoro-pyridin-2-yl)-2,2-dimethyl-propionamide]
IC50 [1]: 2200 nM
IC50 [2]: 12100 nM

CN(C)c1ccc(N(Cc2csc(N3CCCCC3)n2)C(=O)C(C)(C)C)cc1 [Compound 86, N-(4-Dimethylamino-phenyl)-2,2-dimethyl-N-(2-piperidin-1-yl-thiazol-4-ylmethyl)-propionamide]
IC50 [1]: 3100 nM
IC50 [2]: 12600 nM

CCN(c1ccc(CN(C(=O)C(C)(C)C)c2ccc(F)cc2)cc1)C1CC1 [Compound 87, N-[4-(Cyclopropyl(ethyl)amino)-benzyl]-N-(4-fluorophenyl)-2,2-dimethyl-propionamide]
IC50 [1]: 1400 nM
IC50 [2]: 4200 nM

CCN(CC)c1ccc(N(Cc2csc(N(C)c3ccc(F)cc3)n2)C(=O)C(C)(C)C)cc1 [Compound 88, N-(4-Diethylamino-phenyl)-N-{2-[(4-fluorophenyl)-methyl-amino]-thiazol-4-ylmethyl}-2,2-dimethyl-propionamide]
IC50 [1]: 100 nM
IC50 [2]: 400 nM

CN(C)c1ccc(N(Cc2csc(N(C)c3ccc(C(F)(F)F)cc3)n2)C(=O)C(C)(C)C)cc1 [Compound 89, N-(4-Dimethylamino-phenyl)-2,2-dimethyl-N-{2-[methyl-(4-trifluoromethyl-phenyl)-amino]-thiazol-4-ylmethyl}-propionamide]
IC50 [1]: 300 nM
IC50 [2]: 1100 nM

CCN(CC)c1ccc(CN(C(=O)C(C)(C)CC)c2ccc(N(C)C)cc2)cc1 [Compound 90, N-(4-Diethylaminobenzyl)-N-(4-dimethylamino-phenyl)-2,2-dimethyl-butyramide]
IC50 [1]: 800 nM
IC50 [2]: 2200 nM

CCN(CC)c1ccc(CN(C(=O)CCC(C)C)c2ccc(N(C)C)cc2)cc1 [Compound 91, 4-Methyl-pentanoic acid (4-Diethylaminobenzyl)-(4-dimethylamino-phenyl)-amide]
IC50 [1]: 600 nM
IC50 [2]: 1000 nM

CCN(c1cccc(CN(C(=O)C(C)(C)C)c2ccc(F)cc2)n1)C1CC1 [Compound 92, N-[6-(Cyclopropyl(ethyl)amino)-pyridin-2-ylmethyl]-N-(4-fluorophenyl)-2,2-dimethyl-propionamide]
IC50 [1]: 800 nM
IC50 [2]: 1800 nM

CCN(CC)c1ccc(CN(C(=O)/C=C/C(C)C)c2ccc(N(C)C)cc2)cc1 [Compound 94, 4-Methyl-pent-2-enoic acid (4-Diethylaminobenzyl)-(4-dimethylamino-phenyl)-amide]
IC50 [1]: 700 nM
IC50 [2]: 1800 nM

CCN(CC)c1nc(CN(C(=O)CCC(C)C)c2ccc(N(C)C)cc2)cs1 [Compound 95, 4-Methyl-pentanoic acid (2-diethylamino-thiazol-4-ylmethyl)-(4-dimethylamino-phenyl)-amide]
IC50 [1]: 2300 nM
IC50 [2]: 7900 nM

CCN(CC)c1nc(CN(C(=O)C(C)(C)CC)c2ccc(N(C)C)cc2)cs1 [Compound 96, N-(2-Diethylamino-thiazol-4-ylmethyl)-N-(4-dimethyalmino-phenyl)-2,2-dimethyl-butyramide]
IC50 [1]: 1100 nM
IC50 [2]: 4500 nM
